# Test results taken from patent US8057800B2, “Immunointeractive molecules and uses thereof” (Circassia Limited, priority 2004, dated 2011).
# Tests used:
# [1] = tested on: peanut specific TCL generated using CPE; experiment: CPE driven peanut specific TCL proliferation assay (3H-thymidine); assay type: cell-based, human; settings: for proliferative response / responders with a proliferative response to the peptide: CPE driven TCL; for proliferative response: peptide 10 μg/ml, stimulation index ≧2.5; for subjects responding to the peptide who also had a proliferative response to Ara h 2: subjects with a response to Ara h 2 (19-38) and Ara h 2 (28-47); for responders with a proliferative response to the peptide: 8 responders
# Method: FIG. 4 is a graphical representation of peanut allergic donor peanut specific TCL proliferative responses to Ara h 2 peptides, Ara h 2 and crude peanut extract. Peanut specific TCL (5×10^4 cells/ml) from individuals with peanut allergy generated using CPE were stimulated with Ara h 2 peptides at a concentration of 10 μg/ml in the presence of autologous irradiated PBMC as APC (5×10^4 cells/ml) in 3 day cultures.
# (§1) Freshly harvested or frozen stored PBMC were cultured in 24-well plates (Greiner Biotechnik, Germany) at 2.5×10^6 cells per well (2 ml volume) in complete medium with antigen at an optimised concentration for 7 days at 37° C. in a 5% CO2 humidified incubator. In the case of frozen PBMC the cells were first washed once in wash medium, 1 in 10 dilution of PBMC to medium, and pelleted at 329×g for 10 minutes to remove DMSO. At day 7 cells were washed once and resuspended at 1 to 1.5×10^6/ml and added together with 1×10^6/ml washed irradiated (3000 rads; Gammacell 1000 Elite, Nordion International, Inc.) autologous PBMC (from liquid nitrogen stocks) and antigen into fresh 24-well plates. At day 2 following restimulation, 25 U/ml of recombinant human interleukin-2 (rIL-2) was added and at day 4, 1 ml of culture medium was removed and replaced with fresh medium and 25 U/ml rIL-2. For some experiments due to low cell numbers at 2 weeks, 3 week TCLs were generated by restimulation with antigen and rIL-2 as above for a further week. In all experiments T cells were rested for 6 to 7 days after the last addition of antigen and APC.
# (§2) 5.0×10^4/well TCL cells were cultured in triplicate in 96-well U bottom plates (Linbro ICN Biomedicals, USA) with antigen or medium alone and rIL-2 as negative and positive controls respectively, in the presence of autologous irradiated (3000 rads) PBMC (5.0×10^4/well). Cultures were incubated for 3 days. In the last 16 hours of culture, wells were pulsed with ^3H-thymidine (1 μCi/well), then harvested onto printed glass fibre filters with a 96-well automatic cell harvester. ^3H-thymidine incorporation was measured by liquid scintillation spectroscopy.
# To determine the T cell epitopes of Ara h 2, oligoclonal CPE-specific TCL were generated from PBMC of 21 peanut-allergic donors and 5 non-peanut allergic donors, and stimulated with a nested set of synthetic peptides spanning the entire Ara h 2 sequence (FIG. 1). A peptide concentration of 10 μg/ml was determined to be the optimal stimulating concentration within proliferation assays. Optimisation included assays at both 10 μg/ml and 30 μg/ml. […] In this setting, and because of the limited availability of donor cells and the cost of commercially prepared peptides, the lower concentration was used.
# Several approaches to the production of TCL were used, including stimulation of cells with two and three pulses of CPE separated by 7 days each, two pulses of CPE with a third pulse of rAra h 2, again separated by 7 days each, and three stimulations with rAra h 2. Responses by TCL receiving two CPE stimulations were in general lower than those receiving three stimulations, such that it was felt the sensitivity of the assay may be compromised. […] This lead to the use of TCL stimulated with 3 pulses of CPE, each separated by 7 days for all subjects tested.
# [2] = tested on: peanut specific TCL generated using CPE and rAra h 2; experiment: rAra h 2 pulsed peanut specific TCL proliferation assay (3H-thymidine); assay type: cell-based, human
# Method: FIG. 5 is a graphical representation of peanut allergic donor peanut specific Ara h 2 pulsed TCL proliferative responses Ara h 2 peptides, Ara h 2 and crude peanut extract. Peanut specific TCL (5×10^4 cells/ml) from individuals with peanut allergy were generated using CPE and rAra h 2, then stimulated with Ara h 2 peptides at a concentration of […] in the presence of autologous irradiated PBMC as APC (5×10^4 cells/ml) in 3 day cultures.
# as §1
# as §2, with “Cultures were incubated for 3 days.” left out, “spectroscopy. […]” for “spectroscopy.”
# [3] = tested on: peanut specific TCL generated using CPE; experiment: Cytokine ELISA (IL-5, IFN-γ) of CPE driven TCL supernatants; assay type: cell-based, human; settings: for IL-5 production: 48 hours
# Method: FIG. 7 is a graphical representation of peanut allergic donor peanut specific Ara h 2 pulsed TCL cytokine responses to Ara h 2 peptides, Ara h 2 and crude peanut extract. Peanut specific TCLs (5×10^4/ml) from individuals with peanut allergy were generated using CPE, then stimulated with Ara h 2 peptides at a concentration of 10 ug/ml in the presence of autologous irradiated PBMC as APC (5×10^4/ml) in 3 day cultures. Cytokine supernatants were collected after 48 hours culture and assayed by specific ELISA. […] Peptides associated with a significant proliferative response are shaded grey.
# Supernatants (70-75 μl/well of triplicate cultures) were harvested and pooled from T cell proliferation assay cultures at 48 hours (IL-5, IFN-γ) and frozen at −80° C. Harvested supernatants were replaced with warm (37° C.) complete medium and cells subsequently pulsed and harvested as described previously.
# IL-5 and IFN-γ levels in culture supernatants were measured by sandwich ELISA. White Costar (Corning, USA) ELISA plates were coated with capture mAb (IL-5 and IFN-γ, 2 μg/ml; 30 μl/well) diluted in binding buffer overnight at 4° C. Plates were then washed three times in PBS/0.05% Tween (wash buffer) and wells blocked with 100 μl/well of 1% BSA/PBS (blocking buffer) for 1 hour at room temperature. Following three washes in wash buffer, 30 μl/well of serial dilutions of recombinant human IL-5 or IFN-γ (5000-0.15 pg/ml) in blocking buffer-0.05% Tween or culture supernatants were added and incubated overnight at 4° C. Following four washes in wash buffer, plates were incubated with biotinylated detection mAb (IL-5, 1 μg/ml; IFN-γ, 0.5 μg/ml; 50 μl/well) diluted in blocking buffer for 1 hour at room temperature. Plates were then washed 6 times in wash buffer and incubated with a 1 in 2000 dilution of streptavidin-peroxidase (50 μl/well) in blocking buffer for 45 minutes at room temperature. Following 8 washes in wash buffer, 100 μl/well of freshly prepared chemiluminescent substrate (Perkin-Elmer, USA) was used and plates read in a Lumicount microplate glow luminometer (Packard Instrument Company, USA), 0.5 seconds/well, automatic sensitivity setting. Standard curve construction and determination of unknown cytokine levels was performed using Packard Instruments software. IL-5 and IFN-γ ELISA sensitivities were 2 pg/ml and 4 pg/ml, respectively.
# To identify the phenotype of T cells associated with a peptide proliferative response, supernatants were collected from TCL cultures 48 hours after stimulation with peptides and assayed for the presence of IL-5 and IFN-γ. For each donor, peptides associated with a proliferative response and two peptides not associated with a proliferative response were tested. […] In general, cytokine responses were at the lower limits of detection. […]
# specific IgE = settings: cited from earlier work
# serum IgE = experiment: Western blot of CPE for serum IgE reactivity to Ara h 2; assay type: binding, human; settings: western blotting of CPE
# From the text: Following resolution of CPE on a 14% polyacrylamide gel, proteins were transferred to nitrocellulose and probed with sera from the study population, and non-peanut allergic controls. IgE was detected using HRP conjugated mouse anti-human IgE and enhanced chemiluminescence.
# SDS-PAGE gels were assembled into stacks in transfer buffer as follows: blotting paper, nitrocellulose membrane, gel and blotting paper. Sample proteins and pre-stained molecular weight markers were electrophoretically transferred from SDS-PAGE gels to nitrocellulose at 30 volts for 3 hours in an Xcell II blot module (Novex, USA). Following transfer, the nitrocellulose membrane was stained with Ponceau S to ensure adequate protein transfer, then cut into strips and blocked by incubation with 10% milk powder-PBS for 1 hour at room temperature. The blocked nitrocellulose membrane was then washed in PBS and incubated with sample sera diluted 1 in 5 with 1% milk powder-PBS-Tween for all proteins except for Ara h 1, whereupon a 1 in 10 serum dilution was used. Incubation took place overnight, following which the blot was washed 3 times in PBS-Tween, 5 minutes/wash. […] The nitrocellulose was then photographed and analysed using Labworks image acquisition software (UVP Laboratory Products, UK). […]
molecule,measurement,setting,value
"RRCQSQLERANLRPCEQHLM (Peanut Ara h 2) [Ara h 2 (28-47), Ara h 2 20-mer peptide, residues 28-47]",proliferative response,[1],inducing proliferative responses
same,subjects responding to the peptide who also had a proliferative response to Ara h 2,[1],60%
"RCMCEALQQIMENQSDRLQG (Peanut Ara h 2) [Ara h 2 (100-119), Ara h 2 20-mer peptide, residues 100-119]",proliferative response,[1],inducing proliferative responses
"PYDRRGAGSSQHQERCCNEL (Peanut Ara h 2) [Ara h 2 (73-92), Ara h 2 20-mer peptide, residues 73-92]",pattern of reactivity of subject 6,"[2]; subject 6, rAra h 2 pulsed TCL",did not include
same,responders with a proliferative response to the peptide,[1],3 of the 8
"RQQWELQGDRRCQSQLERAN (Peanut Ara h 2) [Ara h 2 (19-38), Ara h 2 20-mer peptide, residues 19-38]",reactivity of subject 10,"[2]; subject 10, both types of TCL preparation",reacted
same,magnitude of response relative to other peptides,"[2]; subject 10, rAra h 2 pulsed TCL",less than that generated by stimulation with Ara h 2 (37-56) and Ara h 2 (46-65)
same,responders with a proliferative response to the peptide,[1],3 of the 8
same,subjects demonstrating their greatest response to this peptide,[1]; response magnitude ranked for each subject,3
same,subjects responding to the peptide who also had a proliferative response to Ara h 2,[1],60%
same,IL-5/IFN-γ ratio,"[3]; subject 10, CPE driven TCL",~7
same,IL-5 production,"[3]; subject 10, CPE driven TCL",540 pg/mL
same,IL-5/IFN-γ ratio,"[3]; subject 21, CPE driven TCL",approximately 20
same,IL-5 production,"[3]; subject 21, CPE driven TCL",2054 pg/mL
"Ara h 2: major peanut allergen, a glycoprotein of the conglutin seed storage family (protein, Peanut Ara h 2, major peanut allergen, a glycoprotein of the conglutin seed storage family) LTILVALALFLLAAHASARQQWELQGDRRCQSQLERANLRPCEQHLMQKIQRDEDSYERDPYSPSQDPYSPSPYDRRGAGSSQHQERCCNELNEFENNQRCMCEALQQIMENQSDRLQGRQQEQQFKRELRNLPQQCGLRAPQRCDLDVESGGRDRY",sera reactive with Ara h 2,"specific IgE; Burks et al, 1992",6 out of 6
same,subjects with specific IgE to purified natural Ara h 2,specific IgE; de Jong et al. 1998,approximately 78%
same,subjects possessing specific IgE to Ara h 2,"specific IgE; western blotting of crude peanut extract, Clarke et al. 1998",71%
same,subjects possessing IgE towards the recombinant form,"specific IgE; western blotting, Kleber-Janke et al. 1999",85%
same,peanut allergic subjects possessing IgE reactive to Ara h 2 doublet,serum IgE; 22 peanut allergic subjects,20 out of the 22
same,IgE binding to Ara h 2 in non-peanut allergic controls,serum IgE; non-peanut allergic controls,weak and potentially non-specific
